The values below are quoted from earlier work in the CATMoS acute toxicity set (Mansouri et al. 2021).

Values joined by “and” are separate entries in the source; they are usually repeats but may differ in a detail not shown here. Equal entries are not always repeated.

A short description of the data set: rat acute oral toxicity. The settings on record: in vivo.
As to `CO[C@H]1C[C@H](O[C@H]2[C@H](C)[C@@H](O[C@@H]3O[C@H](C)C[C@H](N(C)C)[C@H]3O)[C@@H](C)C[C@]3(CO3)C(=O)[C@H](C)[C@@H](O)[C@@H](C)[C@@H](C)OC(=O)[C@@H]2C)O[C@@H](C)[C@@H]1O`, the LD50 – broadly, the dose at which mortality reaches 50% – was 6700 mg/kg.

As to `C[C@H](CCc1ccccc1)NC[C@H](O)c1ccc(O)c(C(N)=O)c1`, the LD50 is 1030 mg/kg. As to `CC(=O)N[C@@H](Cc1c[nH]c2ccccc12)C(=O)O`, the median lethal dose (LD50) is 15000 mg/kg.

Consider `Nc1ccccc1Cl`, for which the LD50 was 1020 mg/kg. Regarding `O=P(O)(O)OC(=CCl)c1ccc(Cl)cc1Cl`, the LD50 is 13 mg/kg.

With `CCCCCCCCCCCCOC(=O)c1ccccc1`, the LD50 was 34500 mg/kg. On to `CCOc1ccc2c(OS(=O)(=O)O)c(-c3sc4cc(OCC)ccc4c3OS(=O)(=O)O)sc2c1`, for which the LD50 was 6700 mg/kg.

Turning to `COCCOc1c(OC)cc(Cc2cnc(N)nc2N)cc1OC`, the LD50 is 1170 mg/kg. Regarding `O=CC1C(=O)N(c2ccccc2)N=C1c1ccccc1` (stereo not given), the LD50 was 789 mg/kg.

On to `c1ccc2c(c1)Sc1ccccc1N2CC1CN2CCC1CC2` (stereo not given), for which the LD50 is 245 mg/kg. Regarding `CS(=O)(=O)OCCCN(CCCOS(C)(=O)=O)c1ccccc1`, the LD50 was 38 mg/kg.

On to `C=CCOc1ccc([C@H]2c3ccc(OC)cc3OC(C)(C)[C@@H]2c2ccccc2)cc1`, for which the LD50 is 500 mg/kg. As to `Cc1cc(C)c(N)cc1C`, the LD50 was 1250 mg/kg and 1580 mg/kg. On to `CC=CCO`, for which the LD50 was 793 mg/kg.

With `CC(C)COc1ccc2ccccc2c1`, the LD50 was 5930 mg/kg. For the compound `Cc1cccc(C)c1NC(=O)C1(N(C)C)CCN(C2CCCCC2O)CC1` (stereo not given), the LD50 is 4.83 mg/kg. As for `Nc1ccc(O)c(N)c1`, the LD50 was 240 mg/kg. On to `CCCCOCCC#N`, for which the LD50 was 7460 mg/kg. Turning to `CCOC(=O)CS`, the median lethal dose (LD50) was 178 mg/kg. `CNC(=O)c1cc(Cl)ccn1`: the 50% lethal dose (LD50) was 500 mg/kg. Turning to `CCCn1cnc2c1c(=O)n(CCCCC(C)=O)c(=O)n2C`, the LD50 was 940 mg/kg. `CC(C(=O)O)c1ccc(N2CC=CC2)c(Cl)c1` (stereo not given): the 50% lethal dose (LD50) was 351 mg/kg. As for `CC(C)=CCO`, the LD50 was 810 mg/kg. For the compound `CSC(C)=NOC(=O)N(C)SN(C)C(=O)Oc1ccc(C(C)(C)c2ccc(OC(=O)N(C)SN(C)C(=O)ON=C(C)SC)cc2)cc1`, the LD50 is 508 mg/kg. In the case of `OCC1(CO)CC=CCC1`, the LD50 was 1750 mg/kg. As to `O=Cc1ccc(CO)o1`, the LD50 is 2500 mg/kg. As to `O=[N+]([O-])c1ccc2ccccc2c1`, the LD50 is 4400 mg/kg. Consider `CCCCCCCCCCCCCCCCCC(=O)NCCC[N+](C)(C)CCO`, for which the LD50 was 8100 mg/kg. On to `COC(OC)c1ccccc1[N+](=O)[O-]`, for which the median lethal dose (LD50) is 3420 mg/kg.

Consider `COc1nccc(C(F)(F)F)c1S(=O)(=O)Cl`, for which the LD50 is 3130 mg/kg.

On to `Cn1c([N+](=O)[O-])cnc1COC(N)=O`, for which the median lethal dose (LD50) is 3400 mg/kg. Turning to `C=CCON/C(CCC)=C1\C(=O)CC(C)(C)C(C(=O)OC)=C1O`, the LD50 is 2260 mg/kg. For `C=C(CCl)CCl`, the LD50 was 150 mg/kg. For the compound `Cc1cc(OC(=O)N(C)C)n(-c2ccccc2)n1`, the LD50 was 62 mg/kg. Regarding `NCc1cccc(CN)c1`, the LD50 was 930 mg/kg.

Regarding `CC(CCN(C)C)N(C)C` (stereo not given), the LD50 is 750 mg/kg.

In the case of `NCC(c1cccs1)N1CCCCC1` (stereo not given), the 50% lethal dose (LD50) was 1480 mg/kg.

`CC[C@H](C)N`: the LD50 is 380 mg/kg.

As for `Cc1ccc(SN(C)C(=O)Oc2cccc3c2OC(C)(C)C3)cc1`, the LD50 was 25 mg/kg.

For `FC(F)(F)c1nc2c(Br)ccc(Br)c2[nH]1`, the LD50 is 18 mg/kg. Consider `COc1ccc2oc(N)nc2c1`, for which the LD50 was 1000 mg/kg. Turning to `CN(C)/N=N/c1ccccc1C(=N)O`, the 50% lethal dose (LD50) was 56 mg/kg. Turning to `O=C(OCc1ccccc1)c1ccccc1O`, the LD50 is 2230 mg/kg.

As for `CC(C)(C)NCC(O)c1ccc(O)c(CO)n1` (stereo not given), the LD50 is 2800 mg/kg.

For the compound `CC(NCCO)c1ccccc1` (stereo not given), the LD50 was 2830 mg/kg. Turning to `CC(=O)NNc1ccc(N)cc1`, the LD50 was 10 mg/kg. With `CCOP(=O)(OCC)SC(P(=O)(OCC)OCC)(P(=O)(OCC)OCC)P(=O)(OCC)OCC`, the LD50 was 28 mg/kg. With `CCCCCCCCCCCCOC(=O)Cc1ccc(N(CCCl)CCCl)cc1`, the median lethal dose (LD50) is 72 mg/kg. In the case of `CC(C)NC(=N)NC(=N)Nc1ccc(Cl)cc1`, the LD50 is 58 mg/kg. As for `Fc1cccc(C(F)(F)F)n1`, the LD50 is 50 mg/kg. Regarding `CCC(CC)COCCOCCCN1C(=O)C2C3C=CC(C3)C2C1=O` (stereo not given), the median lethal dose (LD50) was 9500 mg/kg. With `CCSC(=S)N(CC)CC`, the LD50 is 712 mg/kg. As to `Nc1c(Cl)cc(Cl)cc1Cl`, the LD50 is 2400 mg/kg. As for `Cc1cccc(N2CC(CO)OC2=O)c1` (stereo not given), the LD50 is 1220 mg/kg. On to `CC(C)n1nc(-c2cccc(Cl)c2Cl)c(N)nc1=N`, for which the LD50 is 229 mg/kg. For the compound `CCC(C)(O)c1ccccc1` (stereo not given), the LD50 was 1400 mg/kg.

Regarding `O=P(O)(O)CN(CP(=O)(O)O)CP(=O)(O)O`, the LD50 is 17800 mg/kg. Turning to `CC(=O)Oc1ccc(C)cc1`, the LD50 was 1900 mg/kg. On to `CCN(CC)C(=O)Cl`, for which the LD50 was 2700 mg/kg. With `Cc1c(-c2ccccc2)oc2c(C(=O)OCCN3CCCCC3)cccc2c1=O`, the LD50 was 1440 mg/kg and 1040 mg/kg.
